Reference: patent US8835454B2, “Fused bicyclic diamine derivatives as HIV attachment inhibitors” (priority 2011, dated 2014)
Read-outs that look alike come from different tables or passages of the source.

Test system: HIV-1 LAI envelope single-round infectious reporter virus
Test: Single-round infectious luciferase reporter virus infection of MT2 cells (HIV-1 LAI envelope)
Format: cell-based
Settings: Human immunodeficiency virus 1, MT2, 72 h
From the text: Human embryonic Kidney cell line, 293T (HEK 293T), was propagated in Dulbecco's Modified Eagle Medium (Invitrogen, Carlsbad, Calif.) containing 10% fetal Bovine serum (FBS, Sigma, St. Louis, Mo.). The human T-cell leukemia cell MT2 (AIDS Research and Reference Reagent Program, Cat. 237) was propagated in RPMI 1640 (Invitrogen, Carlsbad, Calif.) containing 10% fetal bovine serum (FBS, Hyclone, Logan, Utah)
Single-round infectious reporter virus was produced by co-transfecting HEK 293T cells with plasmide expressing the HIV-1 LAI envelope along with a plasmid containing an HIV-1 LAI proviral cDNA with the envelope gene replaced by a firefly luciferase reporter gene (Chen et al, Ref 41). Transfections were performed using lipofectAMINE PLUS reagent as described by the manufacturer (Invitrogen, Carlsbad, Calif.).
• 1. MT2 cells were plated in black, 384 well plates at a cell density of 5×10^3 cells per well in 25 μl RPMI 1640 containing 10% FBS. • 2. Compound (diluted in dimethylsulfoxide and growth medium) was added to cells at 12.5 μl/well, so that the final assay concentration would be ≦50 nM. • 3. 12.5 μl of single-round infectious reporter virus in Dulbecco's Modified Eagle Medium was added to the plated cells and compound at an approximate multiplicity of infection (MOI) of 0.01, resulting in a final volume of 50 μl per well. • 4. Virus-infected cells were incubated at 37 degrees Celsius, in a CO2 incubator, and harvested 72 h after infection. • 5. Viral infection was monitored by measuring luciferase expression in the infected cells using a luciferase reporter gene assay kit (Steady-Glo, Promega, Madison, Wis.) as described by the manufacturer. Luciferase activity was then quantified by measuring luminescence using an EnVision Multilabel Plate Readers (PerkinElmer, Waltham, Mass.). • 6. The percent inhibition for each compound was calculated by quantifying the level of luciferase expression in cells infected in the presence of each compound as a percentage of that observed for cells infected in the absence of compound and subtracting such a determined value from 100. • 7. An EC50 provides a method for comparing the antiviral potency of the compounds of this disclosure. The effective concentration for fifty percent inhibition (EC50) was calculated with the Microsoft Excel Xlfit curve fitting software. For each compound, curves were generated from percent inhibition calculated at 10 different concentrations by using a four parameter logistic model (model 205). Table 1 is the key for the data in Table 2.

[1] = read-out: EC50 Group from Table 1

Row | Compound | EC50 [1] | EC50
1 | O=C(C(=O)N1CC2CN(c3nnnn3-c3ccccc3)CC2C1)c1c[nH]c2c(-n3ccnn3)ncc(F)c12 (stereo not shown) [Compound 1001, 1-(4-fluoro-7-(1H-1,2,3-triazol-1-yl)-1H-pyrrolo[2,3-c]pyridin-3-yl)-2-(5-(1-phenyl-1H-tetrazol-5-yl)hexahydropyrrolo[3,4-c]pyrrol-2(1H)-yl)ethane-1,2-dione] | < 500 nM | –
2 | COc1cnc(-n2cnc(C)n2)c2[nH]cc(C(=O)C(=O)N3CC4CN(c5nnnn5-c5ccccc5)CC4C3)c12 (stereo not shown) [Compound 1002, 1-(4-methoxy-7-(3-methyl-1H-1,2,4-triazol-1-yl)-1H-pyrrolo[2,3-c]pyridin-3-yl)-2-(5-(1-phenyl-1H-tetrazol-5-yl)hexahydropyrrolo[3,4-c]pyrrol-2(1H)-yl)ethane-1,2-dione] | < 500 nM | 1.41 nM
3 | O=C(C(=O)N1CC2CN(C(=O)c3ccccc3)CC2C1)c1c[nH]c2c(-n3ccnn3)ncc(F)c12 (stereo not shown) [Compound 2005] | < 500 nM | –
4 | COc1cnc(-n2cnc(C)n2)c2[nH]cc(C(=O)C(=O)N3CC4CN(C(=O)c5ccccc5)CC4C3)c12 (stereo not shown) [Compound 2006] | < 500 nM | 0.68 nM
5 | CN(C)C(=O)N1CC2CN(C(=O)C(=O)c3c[nH]c4c(-n5ccnn5)ncc(F)c34)CC2C1 (stereo not shown) [Compound 3001, 5-(2-(4-fluoro-7-(1H-1,2,3-triazol-1-yl)-1H-pyrrolo[2,3-c]pyridin-3-yl)-2-oxoacetyl)-N,N-dimethylhexahydropyrrolo[3,4-c]pyrrole-2(1H)-carboxamide] | < 500 nM | –
6 | COc1cnc(-n2cnc(C)n2)c2[nH]cc(C(=O)C(=O)N3CC4CN(C(=O)N(C)C)CC4C3)c12 (stereo not shown) [Compound 3002, 5-(2-(4-methoxy-7-(3-methyl-1H-1,2,4-triazol-1-yl)-1H-pyrrolo[2,3-c]pyridin-3-yl)-2-oxoacetyl)-N,N-dimethylhexahydropyrrolo[3,4-c]pyrrole-2(1H)-carboxamide] | < 500 nM | –
7 | COc1cnc(-n2cnc(C)n2)c2[nH]cc(C(=O)C(=O)N3CC4CN(Cc5ccccc5)CC4C3)c12 (stereo not shown) [Compound 2001] | < 500 nM | –
8 | O=C(C(=O)N1CC2CN(Cc3ccccc3)CC2C1)c1c[nH]c2c(-n3ccnn3)ncc(F)c12 (stereo not shown) [Compound 2003] | > 500 nM | –
